Tested on: iHMGEC
Assay: Terminal differentiation of iHMGECs under low oxygen combined with phospholipidosis-inducing drug
Assay type: cell-based, human
Settings: low oxygen levels combined with drug exposure, 10 μg/ml
Description: This hypoxic effect is associated with a significant rise in the number and size of lysosomes, as well as increased DNase II activity and decreased Lamp-1 expression. These latter changes are consistent with heightened terminal differentiation and holocrine secretion.

CC[C@H]1OC(=O)[C@H](C)[C@@H](O[C@H]2C[C@@](C)(OC)[C@@H](O)[C@H](C)O2)[C@H](C)[C@@H](O[C@@H]2O[C@H](C)C[C@H](N(C)C)[C@H]2O)[C@](C)(O)C[C@@H](C)CN(C)[C@H](C)[C@@H](O)[C@]1(C)O [azithromycin]
hypoxic influence on terminal differentiation: further enhanced
